Test results as given in PubChem BioAssay (NCI).
Where “and” joins values, the source holds several entries; their conditions need not be identical. Equal values may be shown once.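 How tested: cells in 96-well plates exposed to compound for 48 hours at five concentrations. Here, GI50 denotes the concentration required for 50% inhibition of growth. TGI: concentration producing complete growth inhibition.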

Experiments:
Assay in all cases: DTP human tumour cell line panel, 48 h
CCRF-CEM leukemia = system: CCRF-CEM leukemia
COLO 205 colon = system: COLO 205 colon
EKVX NSCLC = system: EKVX NSCLC
HS 578T breast = system: HS 578T breast
IGROV1 ovarian = system: IGROV1 ovarian
NCI-H460 lung = system: NCI-H460 lung
SF-539 CNS = system: SF-539 CNS
SN12C renal = system: SN12C renal
SNB-19 CNS = system: SNB-19 CNS
TK-10 renal = system: TK-10 renal

SMILES	TGI (CCRF-CEM leukemia) [µM]	TGI (COLO 205 colon) [µM]	TGI (EKVX NSCLC) [µM]	TGI (HS 578T breast) [µM]	TGI (IGROV1 ovarian) [µM]	TGI (NCI-H460 lung) [µM]	TGI (SF-539 CNS) [µM]	TGI (SN12C renal) [µM]	TGI (SNB-19 CNS) [µM]	TGI (TK-10 renal) [µM]	GI50 (CCRF-CEM leukemia)	GI50 (COLO 205 colon) [µM]	GI50 (EKVX NSCLC) [µM]	GI50 (HS 578T breast) [µM]	GI50 (IGROV1 ovarian) [µM]	GI50 (NCI-H460 lung) [µM]	GI50 (SF-539 CNS) [µM]	GI50 (SN12C renal) [µM]	GI50 (SNB-19 CNS) [µM]	GI50 (TK-10 renal) [µM]
COc1cc2c3c(cc(Cl)nc3c1OC)C(=O)C(=O)N2	8.21	51	11.9	> 100	25.1	42.7	36.4	21	42.6	33.4	–	–	–	–	–	–	–	–	–	–
NCCCCNCCCNC(=O)CNC(=O)CC(O)C(N)CCCC(NC(=O)C(CN)NC(=O)C(O)CNC(=O)CC(N)c1ccc(O)cc1)C(=O)O (configuration not stated)	> 10	> 10	> 10	> 10	> 10	> 10	> 10	> 10	> 10	> 10	–	–	–	–	–	–	–	–	–	–
CNC(=S)NNc1ncnc2c1c(-c1ccc(Cl)cc1)cn2-c1ccc(C)cc1	> 100	29.6	28.8	57.8	25	17.8	29.8	24.3	36.6	35	–	–	–	–	–	–	–	–	–	–
N#Cc1nc(CCCN2C(=O)c3ccccc3C2=O)oc1N	> 100	> 100	> 100	> 100	> 100	> 100	> 100	> 100	> 100	> 100	–	–	–	–	–	–	–	–	–	–
CCN(CCCCCCCCCCN1CC(=O)N(CCCCCCCCCCN(CC)Cc2ccccc2OC)CC1=O)Cc1ccccc1OC	10.1	2.52	8.14	4.26	3.62	3.62	3.33	3.57	10.5	–	2.11 µM	1.05	1.82	1.35	1.57	1.54	1.58	1.51	3.18	–
Cc1nnc2n1-c1ccccc1N(Cc1ccccc1)CC2	90.3	> 100	> 100	> 100	> 100	> 100	> 100	> 100	> 100	> 100	–	–	–	–	–	–	–	–	–	–
COc1ccc(C2Oc3c(OC)cc(CCCO)cc3C2CO)cc1OC (configuration not stated)	> 100	> 100	> 100	> 100	> 100	> 100	> 100	> 100	> 100	> 100	37.9 µM and > 100 µM	–	–	–	–	–	–	–	–	–
CCN1CCN(Cc2ccc(NC(=O)Nc3ccc(-n4ccc5c(NC(=O)c6ccccc6)nccc54)cc3)cc2C(F)(F)F)CC1	> 100	2.51	–	–	4.39	1.45	–	> 20.7	–	> 100	0.426 µM	0.942	–	–	1.42	0.0811	–	3.17	–	1.5
CCCCCCc1cc2cc(-c3csc(-c4ccc(OC)cc4)n3)c(=O)oc2cc1O	> 100	> 100	45.1	60.7	19.1	41	25.6	23.6	36	34.1	–	–	–	–	–	–	–	–	–	–
Cc1cccc(NS(=O)(=O)c2ccc(N=Nc3c(O)c(C(=O)O)cc4ccccc34)cc2)n1	> 100	> 100	> 100	> 100	> 100	> 100	> 100	–	> 100	> 100	–	–	–	–	–	–	–	–	–	–
C=C1C[C@@H]2CC[C@@]34C[C@H]5O[C@H]6[C@@H](O3)[C@H]3O[C@H](CC[C@@H]3O[C@H]6[C@H]5O4)CC(=O)C[C@@H]3[C@@H](OC)[C@@H](C[C@H](O)CN)O[C@H]3C[C@H]3O[C@@H](CC[C@@H]1O2)C[C@@H](C)C3=C	–	0.00193	0.273	> 0.187	> 0.253	0.161	0.00215	> 1	> 1	> 1	–	–	–	–	–	–	–	–	0.00127	–
CCCCN1C(=O)CC2[C@@H]3CCc4cc(OC)ccc4C3CC[C@]2(C)C1=O (some centres not stated)	> 10	> 10	> 10	> 10	> 10	> 10	> 10	> 10	> 10	> 10	–	–	–	–	–	–	–	–	–	–
O=C1/C(=C/c2ccncc2)C(n2cccc2)c2c(Br)sc(Br)c21 (configuration not stated)	4.99	28.6	8.87	18.1	4.67	18.1	17.1	16.4	30.6	14.6	–	–	–	–	–	–	–	–	–	–
COc1ccc(OC/C(N=Cc2ccncc2)=N/NC(=O)c2ccncc2)cc1	> 100	> 100	> 100	> 100	> 100	> 100	> 100	> 100	> 100	> 100	–	–	–	–	–	–	–	–	–	–
Cc1cc(OCc2nnc3sc(NC(=O)c4ccccc4)nn23)ccc1Cl	> 100	> 100	89.7	95.6	68	> 100	> 100	> 100	> 100	> 100	–	–	–	–	–	–	–	–	–	–
COc1ccc2c(c1)-c1c(c3cc(OC)ccc3n1CCN(C)C)CC2	26.4	25.5	–	28	25.9	25.9	29.8	26	–	28.9	–	–	–	–	–	–	–	–	–	–
Oc1c(OCc2nnc(CCCCCCCCc3nnc(COc4ccc5ccccc5c4O)o3)o2)ccc2ccccc12	–	> 100	> 100	–	–	> 100	–	> 100	> 100	> 100	–	–	–	–	–	–	–	–	–	–
c1c(N2CCOCC2)ssc1=[N+]1CCOCC1	> 100	–	> 100	–	> 100	> 100	> 100	> 100	> 100	> 100	–	–	–	–	–	–	–	–	–	–
O=P(OCc1ccccc1)(OCc1ccccc1)C(O)/C=C/c1ccccc1 (configuration not stated)	–	44.9	95.6	45.1	49.2	–	–	39	71.3	–	–	–	–	–	–	–	–	–	–	–
N#C/C(=C\c1cccc(Br)c1)c1nc2ccccc2c(=O)[nH]1	> 100	> 100	> 100	–	> 100	> 100	> 100	> 100	> 100	> 100	–	–	–	–	–	–	–	–	–	–
